In patent publication US12678453B2, “Aerosolized formulations of HIV protease inhibitors for the treatment of airway reflux” (The Medical College of Wisconsin, Inc., priority 2020, dated 2026):
Square brackets hold non-standard residues; d marks the D form. Peptide text beside a SMILES is read from it. * marks the point of attachment. Sta = CC(C)C[C@H](N)[C@@H](O)CC(=O)O; Isovaleryl = CC(C)CC(=O)*

Assays:
[1] = cited from earlier work
[2] = known clinical profile; cited from earlier work
[3] = preliminary 12-day toxicity study of aerosolized fosamprenavir; format: in vivo, mice; settings: 12-day exposure
Description: In the following Example, the inventors used a small-scale powder disperser (SSPD) to aerosolize Fosamprenavir powder, and monitored particle size distribution by an Optical Particle Sizer (OPS). The SSPD inhales the powder through a venturi aspirator, which is then sampled through OPS at 1 L/min of flow (FIG. 11).
A preliminary 12-day toxicity study was conducted in mice. […] This was the only animal affected, across 15 treated mice, so this is suspected to be unrelated to the fosamprenavir treatment.

[4] = system: 14 relevant biomarkers for inflammation and toxicity; assay: Luminex assay of bronchiolar lavage samples; format: in vivo, mice; settings: control versus lowest dose
Text: Bronchiolar lavage samples were collected from all mice and a Luminex assay was used to measure 14 relevant biomarkers for inflammation and toxicity.

[5] = system: mouse model of laryngopharyngeal reflux (LPR); assay: in vivo mouse model of LPR (laryngeal wounding and pepsin instillation, H&E histology); settings: for laryngeal histology (H&E) / pepsin-mediated laryngeal injury: pepsin pH7 group; for laryngeal histology (H&E): solvent (saline/PBS pH7) group
Text: An in vivo mouse model of direct application of pepsin, to mimic laryngeal exposure during LPR, and treatment with select HIV protease inhibitors by either gavage (oral systemic delivery) or aerosolized delivery (inhaled local delivery) was used. […] Each group contained 3 mice. Six-week-old female Jackson A/J mice (Jackson Laboratory, Bar Harbor, ME), weighed one day after arrival, then weekly, on Mondays thereafter.
Avertin was the preferred anesthetic for the brief application time needed as it has a rapid induction, produces a short surgical anesthesia, and has a rapid recovery. […] For this experiment, isoflurane inhalation was used. The isoflurane, self-scavenging machine, was operated at 3% isoflurane with 2.5 liters of air per minute (LPM). The induction chamber was charged for 3-5 minutes prior to the mice being anesthetized. Mice were placed in the induction chamber for 3-5 minutes prior to any wounding or administrations. Anesthesia records were kept according to IACUC policy.
Animals secured by a copper wire attached to the board from which the mice were suspended by their upper teeth. This caused the lower jaw to fall open naturally, exposing the larynx and permitting visualization with a Zeiss microscope at 6× magnification. […] Under direct visualization, the subglottis, glottis, and supraglottis regions were superficially scratched interiorly from distal to proximal as the needle was pulled out gently, making a mild abrasion. This procedure was performed twice, with one week between woundings.
To examine the effect pepsin at acid and nonacid pH, animals were treated for 2 weeks with laryngeal instillation of pepsin (20 μL at 0.3 mg/ml, pH 7.0 or pH 4.0) at 24, 48, and 72 h post wounding procedure. During weeks 3 and 4, animals were treated with laryngeal instillation for 3 days per week. Mice were sacrificed and samples collected on Friday of the fourth week.
The twelve mice in the aerosol groups were condition in the nose-only exposure chamber (Intox) on three separate days by exposure to dry air for 10 min. Beginning the Monday (day 1) of the next week, aerosols and gavages were performed on the mice Monday through Friday (5 exposures). The aerosols and gavages continued Monday-Friday for three more weeks, with the final week consisting of 4 total exposure days, Monday-Thursday, (19 total) with the mice sacrificed and tissues harvested on Friday. Each mouse received two woundings and 12 solvent or pepsin administrations. Wounding and intratracheal administrations were concurrent with the aerosol and gavage treatments. The first wounding was performed on day 2, followed by solvent or pepsin administrations on days 3, 4, and 5. The second wounding was performed on day 8, followed by solvent or pepsin administrations on days 9, 10, and 11. In weeks 3 and 4, mice received solvent or pepsin administrations on days 16, 17, and 18 and days 23, 24, and 25. Day 26 was sacrifice and tissue harvest.
A 10 mL suspension of drug in ethanol was placed in the baffle, such that the concentration would remain constant at the equilibrium solubility. Droplets of ethanol containing dissolve drug were generated by an ultrasonic atomizer (nominal frequency 1.7 MHz) entrained by air at a flow rate of 0.5 LPM with a custom-built glass baffle (University of Minnesota, Department of Chemistry Glass Shop). The aerosol cloud was then passed through a cylindrical drying column containing an annular ring of charcoal. The ethanol is removed and the emanating dry aerosol particles of pure drug were then directed into the exposure chamber.
The mass deposited on the filters in a fixed collection time was measured gravimetrically, and with the collection time, allowed calculation of the total output rate (mg/min). The aerosol concentration (mass/volume of air) was calculated by dividing the total output rate by the air flow rate (0.5 LPM).

pepsin = settings: Roberts 2003; cited from earlier work
[6] = cited from earlier work; remark: listed apart in the source

| SMILES | pharmacokinetics ([1]; in mice) | oral bioavailability ([1]; prodrug compared with amprenavir) | side effects / tolerability [2] | pathology in nasal cavity, larynx, esophagus, trachea, lung, liver, and kidney tissues ([3]; mice) | heart pathology ([3]; one of 15 treated mice, suspected to be unrelated to treatment) | IL-6 in bronchiolar lavage [4] | laryngeal histology (H&E) / pepsin-mediated laryngeal injury ([5]; aerosol) | laryngeal histology (H&E) ([5]; aerosol) | laryngeal histology (H&E) / pepsin-mediated laryngeal injury ([5]; gavage) | laryngeal histology (H&E) ([5]; gavage) | pepsin-mediated laryngeal injury (multi-layered, reactive epithelia and cell apoptosis) ([5]; inhalation, 1 mg/kg/d) | affinity for pepsin (pepsin) | water solubility [6] |
| --- | --- | --- | --- | --- | --- | --- | --- | --- | --- | --- | --- | --- | --- |
| CC(C)CN(C[C@@H](OP(=O)(O)O)[C@H](Cc1ccccc1)NC(=O)O[C@H]1CCOC1)S(=O)(=O)c1ccc(N)cc1 [fosamprenavir, [(3 S)-oxolan-3-yl]N-[(2S,3R)-4-[(4-aminophenyl)sulfonyl-(2-methylpropyl)amino]-1-phenyl-3-phosphonooxybutan-2-yl]carbamate] | excellent pharmacokinetics | improved oral bioavailability | favorable tolerability profile | No pathology was observed | significant inflammation | showed significance | normal histology | normal histology | normal histology | normal histology | prevented pepsin mediated laryngeal injury |  |  |
| CC(C)CC(=O)N[C@H](C(=O)N[C@H](C(=O)N[C@@H](CC(C)C)[C@@H](O)CC(=O)N[C@@H](C)C(=O)N[C@@H](CC(C)C)[C@@H](O)CC(=O)O)C(C)C)C(C)C [pepstatin] (Isovaleryl-VV[Sta]A[Sta]-OH) |  |  |  |  |  |  |  |  |  |  |  | subnanomolar | poor water-solubility |
